# Laboratory results reported in US12233043B1, “Method of transdermal delivery of cannabinoid compositions” (Florida A&M University, priority 2022, dated 2025).
# Read-outs that look alike come from different tables or passages of the source.
# Legend:
# [1] = Pre-formulation solubility of CBD, THCV and CBG in solvents; type: physicochemical
# Description: Pre-Formulation Studies: Solubility of CBD, THCV and CBG
# The solubility of APIs including CBD, CBG and THCV was determined in various solvents including dimethyl sulfoxide (DMSO), N-Methyl-2-pyrrolidone (NMP), and PEG 400. Briefly, 100 mg of each API was dissolved in 0.5 ml of DMSO, NMP, PEG400 and vortexed until it dissolved completely. All the solutions were then visually observed for any undissolved particles. Further, all the solubility samples were centrifuged, and the supernatant were collected. Samples were then analyzed using HPLC for the amount of drug solubilized in each solvent.
# [2] = tested on: carrageenan-induced paw edema; assay: Carrageenan-induced acute inflammatory (paw edema) model; type: in vivo, Sprague Dawley (SD) rats; conditions: as compared to control (no treatment)
# Description: Carrageenan-Induced Acute Inflammatory Model
# The anti-inflammatory effect of the gel formulations was assessed using carrageenan-induced paw edema model (Whiteley and Dalrymple 1998, Lee and Crosby 1999, Sammons, Raval et al. 2000, Cong, Khaziakhmetova et al. 2015) using Sprague Dawley (SD) rats. This model was deduced suitable for the evaluation of anti-inflammatory and anti-hyperalgesic drugs (Whiteley and Dalrymple 1998, Lee and Crosby 1999, Sammons, Raval et al. 2000, Cong, Khaziakhmetova et al. 2015). Edema was induced in male Sprague Dawley (SD) rats by sub-plantar injection of 50 μL of 0.1% λ-carrageenan (22049 SIGMA λ-Carrageenan plant-mucopolysaccharide, Sigma-Aldrich) gel in nuclease free water into the left hind paw of the animals. The inventors evaluated the intensity, development, and duration of the induced inflammation by measurements of rat paw volume using a digital plethysmometer (LE 7500, Panlab, Harvard Apparatus). Measurements were made prior to edema induction (base-line volume) and at 1, 2, 4, 6, 8, 12, and 24 hrs after sub-plantar carrageenan injection. The intensity of inflammation was assessed by calculating the percentage of increase in paw volume against the base-line measurements. Animals were divided into 4 groups of 4 rats each; group 1: control (no treatment); group 2: CBD gel (Gel A); group 3: CBG gel (Gel I); and group 4: THCV gel (Gel J). […] Therefore, placebo gels were not considered in the study.
# [3] = solution in propylene glycol, water and ethanol, Stinchcomb et al 2004, cited from earlier work
# [4] = In-vitro skin permeation study (IVPT), Franz diffusion cells; type: in vitro ADME, Human; conditions: for cumulative drug permeation: end of 72 hrs
# Description: In-Vitro Skin Permeation Study
# The in-vitro permeation and deposition studies were performed under occlusive conditions using jacketed Franz diffusion cells with a 0.636 cm2 permeation area and 5 mL receptor chamber volume. Human skin used was obtained from The New York Fire Fighter's skin bank and originated from the right and left posterior leg regions. Dermatomed, cryopressed split thickness skin with epidermis and dermis were delivered in plastic bags and stored at −80° C. until further use.
# Skin was thawed in water for 45 minutes and was cut into small pieces and mounted on Franz cells. Receptor medium containing PBS with 25% (v/v) ethanol and 5% (v/v) Tween 80 was used for the IVPT study. 0.01% (w/v) sodium azide was added in the receiving media and sonicated for 20 mins to degasify it. To ensure the absence of bubbles in the receptor chamber, each cell was turned upside down to allow release of air though the sampling port. The cells were then left to equilibrate for about 10 mins before application of hydrogel samples. To begin the permeation experiment, 0.2 mL samples of each formulation was pipetted onto the donor compartment. The donor compartment of each cell was sealed with parafilm and perforated with a needle and the fastened to the receiving compartment using a clamp. Following the completion of the experimental setup, the Franz diffusion cells were blanketed to prevent photo-degradation of samples and the system kept at 32.3° C. with the use of its circulating water bath to maintain the skin surface temperature of 32° C. throughout the duration of the experiment. A 72 hr experimentation duration was employed with sampling times set at 24 hr increments. 1 mL samples were withdrawn from the receptor chamber via the sampling port and analyzed by HPLC, and the entire remaining receiving media in the receptor chamber was discarded and replaced with a fresh batch. The cumulative amount of drug permeated through the skin per unit area (Qp) was calculated from drug concentration in the receptor fluid and plotted as a function of time. The steady-state flux (J) was determined as the slope of the linear portion of the plot.
# [5] = in DMSO, NMP, PEG 400 and lactic acid
Structure (SMILES),"solubility [1, 5]",paw edema [2],cumulative amount of CBD permeation ([3]; end of 48 hrs),maximum flux ([3]; 48 hrs IVPT),solubility [1],"cumulative drug permeated in the receiving media ([4]; 24 hrs, human skin, gel 10% w/w)","cumulative drug permeation ([4]; human skin, gel 10% w/w)",drug permeation ([4]; 24 hours post administration)
"C=C(C)[C@@H]1CCC(C)=C[C@H]1c1c(O)cc(CCCCC)cc1O [CBD, Cannabidiol, reference compound]",high solubility,significantly (p<0.0001) reduced,~78.61 µg,~1.47 μg/cm^2/hr,,,,
"CCCCCc1cc(O)c(C/C=C(\C)CCC=C(C)C)c(O)c1 [CBG, Cannabigerol]",,significantly (p<0.0001) reduced,,,high solubility,at least 136 μg/cm^2,at least 321 μg/cm^2,
"CCCc1cc(O)c2c(c1)OC(C)(C)[C@@H]1CCC(C)=C[C@@H]21 [THCV, Tetrahydrocannabivarin]",high solubility,significantly (p<0.0001) reduced,,,,,at least 2124 μg/cm^2,at least 843 g/cm^2
